Measured values published in US6916840B2, “Spla2 inhibitors” (Eli Lilly and Company, priority 2000, dated 2005).

Biological target: T1, recombinant human secreted phospholipase A2 (sPLA2) (Homo sapiens, UniProt P14555)
T1 sequence (P14555 21-144): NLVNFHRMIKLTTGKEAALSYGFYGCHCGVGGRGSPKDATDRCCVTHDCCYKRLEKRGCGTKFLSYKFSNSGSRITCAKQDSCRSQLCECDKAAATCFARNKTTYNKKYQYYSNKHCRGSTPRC
Assay: chromogenic assay for inhibitors of recombinant human secreted phospholipase A2
Type: biochemical
Settings: diheptanoyl thio-PC substrate 1 mM, Triton X-100 mixed micelles, pH 7.5, 40° C. for 30 minutes, absorbance at 405 nm, triplicate
Description: The following chromogenic assay procedure was used to identify and evaluate inhibitors of recombinant human secreted phospholipase A2. The assay described herein has been adapted for high volume screening using 96 well microtiter plates. A general description of this assay method is found in the article, “Analysis of Human Synovial Fluid Phospholipase A2 on Short Chain Phosphatidylcholine-Mixed Micelles: Development of a Spectrophotometric Assay Suitable for a Microtiterplate Reader”, by Laure J. Reynolds, Lori L. Hughes, and Edward A Dennis, Analytical Biochemistry, 204, pp. 190-197, 1992 (the disclosure of which is incorporated herein by reference):
A measured volume of racemic dipheptanoyl thio PC supplied in chloroform at a concentration of 100 mg/ml is taken to dryness and redissolved in 10 millimolar TRITON X-100™ nonionic detergent aqueous solution. Reaction Buffer is added to the solution, then DTNB to give the Reaction Mixture.
The reaction mixture thus obtained contains 1 mM diheptanoly thio-PC substrate, 0.29 mm Triton X-100™ detergent, and 0.12 mm DTMB in a buffered aqueous solution at pH 7.5.
• 1. Add 0.2 ml reaction mixture to all wells; • 2. Add 10 ul test compound (or solvent blank) to appropriate wells, mix 20 seconds; • 3. Add 50 nanograms of sPLA2 (10 microliters) to appropriate wells; • 4. Incubate plate at 40° C. for 30 minutes; • 5. Read absorbance of wells at 405 nanometers with an automatic plate reader.
Tests were done in triplicate. Typically, compounds were tested at a final concentration of 5 ug/ml. […] Lack of color development at 405 nanometers evidenced inhibition. Compounds initially found to be active were re-assayed to confirm their activity and, if sufficiently active, IC50 values were determined. […] In all cases, % inhibition measured at 405 nanometers generated by enzyme reactions containing inhibitors relative to the uninhibited control reactions was determined. Each sample was titrated in triplicate and result values were averaged for plotting and calculation of IC50 values. IC50 values were determined by plotting log concentration versus inhibition values in the range from 10-90% inhibition.

Compound | IC50
CCc1c(C(=O)C(N)=O)c2c(OCC(=O)O)cc3ccccc3c2n1Cc1ccccc1 [Example 2, 2-[[3-(2-Amino-1,2-dioxoethyl)-2-ethyl-1-benzyl-1H-benz[g]indol-4-yl]oxy]acetic acid] | 0.01 µM
Cc1c(C(=O)C(N)=O)c2c(OCC(=O)O)cc3ccccc3c2n1Cc1cccc(-c2ccc(F)cc2)c1 [Example 6, 2-[[3-(2-Amino-1,2-dioxoethyl)-2-methyl-1-[3-(4-fluorophenyl)benzyl]-1H-benz[g]indol-4-yl]oxy]acetic acid.] | 0.021 µM
Cc1c(C(=O)C(N)=O)c2c(OCC(=O)O)cc3ccccc3c2n1CC1CCCCC1 [Example 4, 2-[[3-(2-Amino-1,2-dioxoethyl)-2-methyl-1-cyclohexylmethyl-1H-benz[g]indol-4-yl]oxy]acetic acid] | 0.011 µM
COC(=O)COc1cc2ccccc2c2c1c(C(=O)C(N)=O)c(C)n2Cc1cccc(-c2ccc(F)cc2)c1 [Example 5, 2-[[3-(2-Amino-1,2-dioxoethyl)-2-methyl-1-[3-(4-fluorophenyl)benzyl]-1H-benz[g]indol-4-yl]oxy]acetic acid methyl ester] | 0.176 µM
COC(=O)COc1cc2ccccc2c2c1c(C(=O)C(N)=O)c(C)n2CC1CCCCC1 [Example 3, 2-[[3-(2-amino-1,2-dioxoethyl)-2-methyl-1-cyclohexylmethyl-1H-benz[g]indol-4-yl]oxy]acetic acid methyl ester] | 0.148 µM
CCc1c(C(=O)C(N)=O)c2c(OCC(=O)OC)cc3ccccc3c2n1Cc1ccccc1 [Example 1, 2-[[3-(2-Amino-1,2-dioxoethyl)-2-ethyl-1-benzyl-1H-benz[g]indol-4-yl]oxy]acetic acid methyl ester hemihydrate] | 0.048 µM

System: not given
Assay: not given
Settings: not given

melting point | Compound
165 to 167 °C | CCc1c(C(=O)C(N)=O)c2c(OCC(=O)OC)cc3ccccc3c2n1Cc1ccccc1 (hydrate or solvate) [Example 1, 2-[[3-(2-Amino-1,2-dioxoethyl)-2-ethyl-1-benzyl-1H-benz[g]indol-4-yl]oxy]acetic acid methyl ester hemihydrate]
